Measurements: patent US20250026778A1 (TIUMBIO CO., LTD., priority 2021, published 2025)

Target: T1, his-galectin-3 (Homo sapiens, UniProt P17931)
T1 construct: purchased Abcam
Experiment: TR-FRET assay (in vitro galectin-3 binding inhibitory activity test)
Conditions: Table 1; compound at 20 μM; 60 nM his-galectin-3, 15 nM biotin-ASF
Description: TR-FRET Assay (In Vitro Galectin-3 Binding Inhibitory Activity Test)
TR-FRET assay was performed in ½ Area Plate-96 (PerkinElmer). Final concentrations of components in the assay were 60 nM his-galectin-3 (Abcam), 15 nM biotin-ASF (Axxora), 2 nM Mab anti-6×His Tb (Cisbio) and 20 nM SA-d2 (Cisbio). The reaction was performed in a buffer containing 25 mM HEPES, 100 mM NaCl, 0.005% Tween 20 and 0.05% BSA. 20 μL his-galectin-3 and 1 μL compound were mixed first, and then 20 μL biotin-ASF, 5 μL anti-His Tb and 5 μL SA-d2 were added in order. After incubation for at least 3.5 hours at RT, TR-FRET signals were measured at 615/665 nm […] wavelengths using a VICTOR Nivo (PerkinElmer). The positive control used DMSO instead of the compound, and the negative control excluded ASF-biotin. N-acetyl-D-lactosamine (LacNAc), an endogenous ligand unit of galectin-3, was evaluated together as a control substance to compare galectin-3 binding inhibitory activity.

T1 sequence (P17931 whole entry): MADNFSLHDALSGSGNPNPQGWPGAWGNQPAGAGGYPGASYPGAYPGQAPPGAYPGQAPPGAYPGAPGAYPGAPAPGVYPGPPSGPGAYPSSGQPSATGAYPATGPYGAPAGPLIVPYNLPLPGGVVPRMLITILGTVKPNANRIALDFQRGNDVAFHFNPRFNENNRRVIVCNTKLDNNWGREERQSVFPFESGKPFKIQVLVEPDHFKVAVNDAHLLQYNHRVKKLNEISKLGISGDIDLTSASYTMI

% Inhibitory activity (at 20 μM) | Compound
D (inhibition rate was less than 25%) | COc1ccc2c(c1)CCC1(O2)O[C@H](CO)[C@H](O)[C@H](n2cc(-c3cc(F)c(F)c(F)c3)nn2)[C@H]1O (single isomer, unassigned) [Compound A10, (3′R,4'S,5′R,6′R)-6′-(hydroxymethyl)-6-methoxy-4′-(4-(3,4,5-trifluorophenyl)-1H-1,2,3-triazol-1-yl)-3′,4′,5′,6′-tetrahydrospiro[chromane-2,2′-pyran]-3′,5′-diol]

Same assay, conditions: Table 1; compound at 20 μM; 60 nM his-galectin-3, 15 nM biotin-ASF; read-out: % Inhibitory activity (at 20 μM)

inhibition at 20 µM [%] | Compound
25 to 50 | COc1ccc2c(c1)CCC1(O2)O[C@H](CO)[C@H](O)[C@H](n2cc(-c3cc(F)c(F)c(F)c3)nn2)[C@H]1O (single isomer, unassigned) [Compound A11, (3′R,4'S,5′R,6′R)-6′-(hydroxymethyl)-6-methoxy-4′-(4-(3,4,5-trifluorophenyl)-1H-1,2,3-triazol-1-yl)-3′,4′,5′,6′-tetrahydrospiro[chromane-2,2′-pyran]-3′,5′-diol]
25 to 50 | OC[C@H]1O[C@@]2(CCCO2)[C@H](O)[C@@H](n2cc(-c3cc(F)c(F)c(F)c3)nn2)[C@H]1O [Compound A12, (5S,7R,8R,9S,10R)-7-(hydroxymethyl)-9-(4-(3,4,5-trifluorophenyl)-1H-1,2,3-triazol-1-yl)-1,6-dioxaspiro[4.5]decane-8,10-diol]
25 to 50 | OC[C@H]1O[C@@]2(CCCO2)[C@H](OCc2ccccc2)[C@@H](n2cc(-c3cc(F)c(F)c(F)c3)nn2)[C@H]1O [Compound A13, (5S,7R,8R,9S,10R)-10-(benzyloxy)-7-(hydroxymethyl)-9-(4-(3,4,5-trifluorophenyl)-1H-1,2,3-triazol-1-yl)-1,6-dioxaspiro[4.5]decan-8-ol]
25 to 50 | OC[C@H]1O[C@@]2(CCCO2)[C@H](OCc2cccnc2)[C@@H](n2cc(-c3cc(F)c(F)c(F)c3)nn2)[C@H]1O [Compound A16, (5S,7R,8R,9S,10R)-7-(hydroxymethyl)-10-(pyridin-3-ylmethoxy)-9-(4-(3,4,5-trifluorophenyl)-1H-1,2,3-triazol-1-yl)-1,6-dioxaspiro[4.5]decan-8-ol acetate]
25 to 50 | OC[C@H]1O[C@@]2(CCCO2)[C@H](OCc2ccccn2)[C@@H](n2cc(-c3cc(F)c(F)c(F)c3)nn2)[C@H]1O [Compound A17, (5S,7R,8R,9S,10R)-7-(hydroxymethyl)-10-(pyridin-2-ylmethoxy)-9-(4-(3,4,5-trifluorophenyl)-1H-1,2,3-triazol-1-yl)-1,6-dioxaspiro[4.5]decan-8-ol]
25 to 50 | OC[C@H]1O[C@@]2(CCCO2)[C@H](OCc2ccncc2)[C@@H](n2cc(-c3cc(F)c(F)c(F)c3)nn2)[C@H]1O [Compound A18, (5S,7R,8R,9S,10R)-7-(hydroxymethyl)-10-(pyridin-4-ylmethoxy)-9-(4-(3,4,5-trifluorophenyl)-1H-1,2,3-triazol-1-yl)-1,6-dioxaspiro[4.5]decan-8-ol acetate]
25 to 50 | O=C(CO[C@@H]1[C@@H](n2cc(-c3cc(F)c(F)c(F)c3)nn2)[C@@H](O)[C@@H](CO)O[C@@]12CCCO2)c1ccccc1 [Compound A20, 2-(((5S,7R,8R,9S,10R)-8-hydroxy-7-(hydroxymethyl)-9-(4-(3,4,5-trifluorophenyl)-1H-1,2,3-triazol-1-yl)-1,6-dioxaspiro[4.5]decan-10-yl)oxy)-1-phenylethanone]
50 to 75 | O=C(O)CO[C@@H]1[C@@H](n2cc(-c3cc(F)c(F)c(F)c3)nn2)[C@@H](O)[C@@H](CO)O[C@@]12CCCO2 [Compound A21, 2-(((5S,7R,8R,9S,10R)-8-hydroxy-7-(hydroxymethyl)-9-(4-(3,4,5-trifluorophenyl)-1H-1,2,3-triazol-1-yl)-1,6-dioxaspiro[4.5]decan-10-yl)oxy)acetic acid]

Further lines, the compound ahead of its results:

Compound | inhibition at 20 µM [%]
O=C1CCCC2(N1)O[C@H](CO)[C@H](O)[C@H](n1cc(-c3cc(F)c(F)c(F)c3)nn1)[C@H]2O (single isomer, unassigned) [Compound A89] | < 25
COc1ccc2c(c1)CC[C@]1(O2)O[C@H](CO)[C@H](O)[C@H](OCc2cc3c(F)c(F)ccc3oc2=O)[C@H]1O [Compound A08, 3-((((2R,3′R,4'S,5'S,6′R)-3′,5′-dihydroxy-6′-(hydroxymethyl)-6-methoxy-3′,4′,5′,6′-tetrahydrospiro[chromane-2,2′-pyran]-4′-yl)oxy)methyl)-5,6-difluoro-2H-chromen-2-one] | < 25
O=c1oc2ccc(F)c(F)c2cc1CO[C@H]1[C@@H](O)[C@@H](CO)O[C@@]2(CCCO2)[C@@H]1O [Compound A09, 3-((((5S,7R,8S,9S,10R)-8,10-dihydroxy-7-(hydroxymethyl)-1,6-dioxaspiro[4.5]decan-9-yl)oxy)methyl)-5,6-difluoro-2H-chromen-2-one] | < 25
OC[C@H]1O[C@@]2(CCCO2)[C@H](OCc2ccc(C(F)(F)F)o2)[C@@H](n2cc(-c3cc(F)c(F)c(F)c3)nn2)[C@H]1O [Compound A19, (5S,7R,8R,9S,10R)-7-(hydroxymethyl)-10-((5-(trifluoromethyl)furan-2-yl)methoxy)-9-(4-(3,4,5-trifluorophenyl)-1H-1,2,3-triazol-1-yl)-1,6-dioxaspiro[4.5]decan-8-ol] | 25 to 50

Same assay, conditions: Table 2; compound at 20 μM; 60 nM his-galectin-3, 15 nM biotin-ASF

Compound | % Inhibitory activity (at 20 μM)
CC(C(=O)N[C@@H]1CCO[C@]12O[C@H](CO)[C@H](O)[C@H](n1cc(-c3cc(F)c(F)c(F)c3)nn1)[C@H]2O)c1cccc(Cl)c1 (single isomer, unassigned) [Compound A167] | C (inhibition rate was 25%˜ to 50%˜ (exclusive of 50%))
CC(C(=O)N[C@@H]1CCO[C@]12O[C@H](CO)[C@H](O)[C@H](n1cc(-c3cc(F)c(F)c(F)c3)nn1)[C@H]2O)c1cccc(Cl)c1 (single isomer, unassigned) [Compound A168] | B (inhibition rate was 50%0 to 7500 (exclusive of 75%))

Same assay, conditions: Table 2; compound at 20 μM; 60 nM his-galectin-3, 15 nM biotin-ASF; read-out: % Inhibitory activity (at 20 μM)

inhibition at 20 µM [%] | Compound
50 to 75 | CC1CO[C@@]2(C1)O[C@H](CO)[C@H](O)[C@H](n1cc(-c3cc(F)c(F)c(F)c3)nn1)[C@H]2OC(=O)c1ccccn1 (single isomer, unassigned) [Compound A235]
50 to 75 | CC1CO[C@@]2(C1)O[C@H](CO)[C@H](O)[C@H](n1cc(-c3cc(F)c(F)c(F)c3)nn1)[C@H]2OCC(=O)O (single isomer, unassigned) [Compound A236]

Same assay, conditions: Table 3, found values; compound at 20 μM; 60 nM his-galectin-3, 15 nM biotin-ASF; read-out: % Inhibitory activity (at 20 μM)

inhibition at 20 µM [%] | Compound
21.8 | COc1ccc2c(c1)CC[C@]1(O2)O[C@H](CO)[C@H](O)[C@H](OCc2cc3c(F)c(F)ccc3oc2=O)[C@H]1O [Compound A08, 3-((((2R,3′R,4'S,5'S,6′R)-3′,5′-dihydroxy-6′-(hydroxymethyl)-6-methoxy-3′,4′,5′,6′-tetrahydrospiro[chromane-2,2′-pyran]-4′-yl)oxy)methyl)-5,6-difluoro-2H-chromen-2-one]

Same assay, conditions: read-out: % Inhibitory activity (at 20 μM), Table 1; compound at 20 μM; 60 nM his-galectin-3, 15 nM biotin-ASF

Compound | inhibition at 20 µM [%]
OC[C@H]1O[C@@]2(CCCO2)C(O)[C@@H](n2cc(-c3cc(F)c(F)c(F)c3)nn2)[C@H]1O (stereo in doubt) [Compound A41, (5S,7R,8R,9S,10R)-7-(hydroxymethyl)-9-(4-(3,4,5-trifluorophenyl)-1H-1,2,3-triazol-1-yl)-1,6-dioxaspiro[4.5]decane-8,10-diol] | < 25
O=C(OC1[C@@H](n2cc(-c3cc(F)c(F)c(F)c3)nn2)[C@@H](O)[C@@H](CO)O[C@@]12CCCO2)c1cccnc1 (stereo in doubt) [Compound A75, (5S,7R,8R,9S,10S)-8-hydroxy-7-(hydroxymethyl)-9-(4-(3,4,5-trifluorophenyl)-1H-1,2,3-triazol-1-yl)-1,6-dioxaspiro[4.5]decan-10-yl nicotinate] | 25 to 50

Same assay, conditions: read-out: % Inhibitory activity (at 20 μM), Table 3, found values; compound at 20 μM; 60 nM his-galectin-3, 15 nM biotin-ASF

Compound | inhibition at 20 µM [%]
O=C(OC1[C@@H](n2cc(-c3cc(F)c(F)c(F)c3)nn2)[C@@H](O)[C@@H](CO)O[C@@]12CCCO2)c1cccnc1 (stereo in doubt) [Compound A75, (5S,7R,8R,9S,10S)-8-hydroxy-7-(hydroxymethyl)-9-(4-(3,4,5-trifluorophenyl)-1H-1,2,3-triazol-1-yl)-1,6-dioxaspiro[4.5]decan-10-yl nicotinate] | 32
